Entries after “also recorded” stand apart in the source; their conditions may differ.
Legend:
[1] = system: HCT116 resistant clones carrying SF3B1 (R1074H, V1078A/I) or PHF5A Y36C mutations; experiment: CellTiter-Glo growth inhibition profiling of E7107/herboxidiene resistant HCT116 clones; assay type: cell-based; conditions: 72 hour CellTiter-Glo, HCT116 resistant clones vs parental
Experimental: 2.5 million HCT116 cells were seeded in each 10 cm dish and treated with indicated dosages of splicing modulators for 2 weeks. Compounds were refreshed every 4 days. When needed, confluent dishes were split 1:3 and cells were allowed to recover overnight without splicing modulator treatment after re-seeding. At the end of the compound selection period, surviving individual clones were picked and transferred to 12-well plates. Individual resistant clones were further expanded without splicing modulator treatment and 1 million cells from each clone were pelleted for genomic DNA extraction using the DNeasy Blood & Tissue Kit from Qiagen. Whole exome sequencing (WXS) libraries were generated by Novogene Corporation using Agilent SureSelect Human All Exon V6 kit and sequenced on Illumina HiSeq platform. 12G raw data were gathered for each sample. WXS reads were then aligned to hg19 by BWA-MEM (Shi et al., Nature biotechnology 33, 661-7 (2015)) and somatic mutations were identified with MuTect2 (Schenone et al., Nature chemical biology 9, 232-40 (2013)) through Sentieon pipeline (Wacker et al., Nature chemical biology 8, 235-7 (2012)) by pairing resistant clone with parental cell lines. As the resistant clones for WXS were selected, the allele frequencies for the mutations which are responsible for the resistance should be high. Non-silent mutations (among the H3 curated spliceosome genes) with allele frequency higher than 0.2 were focused on.
For CellTiter-Glo analysis, 500 cells were seeded in each well of a 384-well plate the day before compound addition. An 11 part serial dilution was used starting with a top final dosage of 10 μM for ten additional doses. DMSO percentage was maintained throughout and a DMSO only control was included. 72 hours post compound addition; CellTiter-Glo reagent was added to the medium, incubated and assayed on EnVision Multilabel Reader (PerkinElmer). The luminescence value from each treatment sample was normalized to the average value of the respective DMSO control. The dosage response curve plots were generated using Graphpad Prism 6 and fit using nonlinear regression analysis and the log (inhibitor) vs. response—Variable slope (four parameters). For heatmap summarization of IC50 shifts, IC50 value were extracted from dosage response curves and the fold changes of IC50 values in PHF5A variants expressing lines over that of the WT lines were calculated and plotted using TIBCO Spotfire software. For IC50s greater than the top dosage, the values were arbitrarily set at 10 μM. Unsupervised clustering analysis was performed in TIBCO Spotfire using the following default parameters: Clustering method: UPGMA; Distance measure: Euclidean; Ordering weight: Average value; Normalization: (None); Empty value replacement: Constant value: 0.

[2] = system: global splicing in PHF5A WT expressing HCT116 cells; experiment: Whole transcriptome RNA-seq differential splicing, PHF5A WT cells; assay type: cell-based
Experimental: (§1) Either PHF5A WT or Y36C mutant overexpressing cells were treated with either DMSO or E7107 (100 nM and 10 μM) for 6 hours in quintuplicate before lysed in TRIzol reagent (Thermo Fisher). After phase separation, top aqueous phase was further processed using MagMAX™-96 Total RNA Isolation Kit (Thermo Fisher, AM1830) for RNA extraction. RNA quality was assessed using Agilent tapestation with RNA screen tape. RNA-seq libraries were prepared by Beijing Genomic Institute (BGI) and sequenced on Illumina Hiseq 4000 for 6G clean reads per sample. RNA-seq reads were aligned to hg19 by STAR (Dobin et al., Bioinformatics 29, 15-21 (2013)) and raw junction counts generated by STAR were used for calculating percent spliced in (PSI) to quantify splice junction usage relative to all other splice junctions that share the same splice site as described before (Darman et al., Cell reports 13, 1033-45 (2015)). Differential PSI were assessed between a pair of sample groups using moderated t-test defined in limma package (Smyth, Statistical applications in genetics and molecular biology 3, Article3 (2004)) in Bioconductor. The statistical p-values were corrected using the Benjamini-Hochberg procedure and q-values less than or equal to 0.05 were considered statistically significant. Gene IDs associated with significant splicing changes upon E7107 treatment as compared to DMSO in either PHF5A WT or Y36C cells were used for generation of the Venn Diagram using online tool (http://bioinformatics.psb.ugent.be/webtools/Venn/). PHF5A WT or Y36C specific genes identified from the Venn Diagram analysis were then subject to Gene Set Enrichment Analysis (GSEA) (http://software.broadinstitute.org/gsea/msigdb/annotate.jsp) using the Kyoto Encyclopedia of Genes and Genomes (KEGG) pathway database.
The number of reads which cover the splice junction which excludes a given cassette exon (exon skipping reads) were compared with both the number of spliced reads which share its 3′ splice site yet have an alternative 5′ splice site bordering the cassette exon (exon inclusion reads) and the number of reads which cross the exon-intron boundary at that same 3′ splice site (intron retention reads.) These counts were summed and their fractions from the percent spliced in (PSI) for the exon skipping event, the exon inclusion event, and the intron retention event, respectively, at that locus. The PSI for all significant exon skipping events derived from the comparison between 100 nM E7107 treatment in PHF5A Y36C cells and the respective DMSO controls (3883 events) and the PSI for the intron retention junction at the same locus were plotted. For all other treatments, the PSI of the exon skipping junction and the intron retention junction for each locus were plotted in the same order. PSI is averaged over samples in quintuplicate.

[3] = system: MCL1 splicing (ES/IR events) in PHF5A WT expressing HCT116 cells; experiment: Taqman gene expression analysis of MCL1 isoforms, PHF5A WT cells; assay type: cell-based; conditions: 4 hour treatment
Experimental: (§2) 8000 cells of indicated genotypes were seeded in each well of 96-well plate and allowed to settle overnight. On the second day, 11 points serial dilution (1:4 fold dilution across) of indicated compound with a top dosage of 10 μM final was added to the culturing medium. 4 hour post compound addition, culturing medium was decanted and washed once with PBS. PBS was then decanted completely from the plate and Lysis buffer (plus DNase I) from TaqMan Gene Expression Cells-to-CT Kit (Thermo Fisher, cat # AM1729) was added according to the manual. After 5 mins incubation at room temperature on the shaker, stop solution was added to each well and incubated for 2 min. Reverse transcription was set up immediately using the Cells-to-CT Kit and cDNAs were used for quantitative real time PCR analysis using Viia7 (Thermo Fisher). Each reaction is multiplexed with a FAM labelled probe targeting specific target gene splicing isoforms and a VIC labelled probe targeted 18S rRNA as loading control. Therefore, the FAM Ct value in each well was first normalized to the VIC Ct value in the same well before further normalization to the FAM/VIC ratio of DMSO treated control samples to calculate fold change over DMSO. Graphs were generated using Graphpad Prism 6, n=2. Taqman gene expression probes used in these assays are: […]

[4] = system: HCT116 cells; experiment: CellTiter-Glo growth inhibition, parental HCT116; assay type: cell-based; conditions: in HCT116
Experimental: Parental HCT116 cells were obtained from ATCC and cultured in RPMI 1640 medium (Thermo Fisher, GIBCO #11875) supplemented with 10% FBS. Parental Panc0504 cells were obtained from ATCC and cultured in GIBCO RPMI 1640 medium (Thermo Fisher, GIBCO #11875) supplemented with glucose (to 4.5 g/L final), HEPES (10 mM final), sodium pyruvate (1 mM final), human insulin (10 μg/ml final) and 15% FBS. Cell line authentication was achieved by genetic profiling using polymorphic short tandem repeat (STR) loci (ATCC). All cell lines were free of mycoplasma contamination. Lenti-X-293T cells (Clontech Laboratories, Inc. Cat #632180), a cell line for lentiviral packaging, was maintained in Dulbecco's modified Eagle's medium (Thermo Fisher, GIBCO #11965) containing 10% fetal bovine serum and 4 mM L-glutamine. WT PHF5A cDNA was obtained from Genecopoeia and cloned into a pDONR 221 vector (Thermo Fisher). Sequence verified positive clones were cloned into pLenti6.3N5 vector (Thermo Fisher) through LR recombination. Mutagenesis of Y36 and V37 were carried using Agilent Quickchange II kit following manufacturer's recommendation using the PHF5A WT plasmid. All primers used for mutagenesis were designed used the QuikChange Primer Design tool by Agilent. Verified positive clones of PHF5A Y36 or V37 variants were used for lentivirus production using X293T cells. Parental HCT116 cells and Panc0504 cells were then infected with virus containing medium and selected with Blasticidin S (Thermo Fisher) at 10 μg/ml for one week. Engineered cell lines were maintained in the same medium without antibiotics. The following primary antibodies were used at 1:1000 dilution for western blot analysis in LI-COR buffer (LI-COR): α-SF3B1 mouse monoclonal antibody (MBL, D221-3), α-SF3B3 rabbit polyclonal antibody (Protein Tech, 14577-1-AP), α-SF3B4 goat polyclonal antibody (Santa Cruz, 14276), α-SF3B6/p14 rabbit polyclonal antibody (Protein Tech, 12379-1-AP), α-PHF5A rabbit polyclonal antibody (Protein Tech, 15554-1-AP). α-GAPDH rabbit polyclonal antibody (Sigma, G9545) was used at 1:10,000. […]
(§3) For CellTiter-Glo analysis, 500 cells were seeded in each well of a 384-well plate the day before compound addition. […] 72 hours post compound addition; CellTiter-Glo reagent was added to the medium, incubated and assayed on EnVision Multilabel Reader (PerkinElmer). The luminescence value from each treatment sample was normalized to the average value of the respective DMSO control. […] For heatmap summarization of IC50 shifts, IC50 value were extracted from dosage response curves and the fold changes of IC50 values in PHF5A variants expressing lines over that of the WT lines were calculated and plotted using TIBCO Spotfire software. […]

[5] = system: MCL1 splicing (ES/IR events) in PHF5A Y36C expressing HCT116 cells; experiment: Taqman gene expression analysis of MCL1 isoforms, PHF5A Y36C cells; assay type: cell-based; conditions: PHF5A-Y36C cells compared to WT, increasing dosage
Experimental: as §2

[6] = system: global splicing in PHF5A Y36C expressing HCT116 cells; experiment: Whole transcriptome RNA-seq differential splicing, PHF5A Y36C cells; assay type: cell-based
Experimental: as §1, with “Gene IDs associated with significant splicing changes upon E7107 treatment as compared to DMSO in either PHF5A WT or Y36C cells were used for generation of the Venn Diagram using online tool (http://bioinformatics.psb.ugent.be/webtools/Venn/). PHF5A WT or Y36C specific genes identified from the Venn Diagram analysis were then subject to Gene Set Enrichment Analysis (GSEA) (http://software.broadinstitute.org/gsea/msigdb/annotate.jsp) using the Kyoto Encyclopedia of Genes and Genomes (KEGG) pathway database.” left out

[7] = system: PHF5A Y36C over-expressing PANC0504 cells; experiment: Growth inhibition in PANC0504 cells over-expressing PHF5A Y36C; assay type: cell-based
Experimental: Parental HCT116 cells were obtained from ATCC and cultured in RPMI 1640 medium (Thermo Fisher, GIBCO #11875) supplemented with 10% FBS. Parental Panc0504 cells were obtained from ATCC and cultured in GIBCO RPMI 1640 medium (Thermo Fisher, GIBCO #11875) supplemented with glucose (to 4.5 g/L final), HEPES (10 mM final), sodium pyruvate (1 mM final), human insulin (10 μg/ml final) and 15% FBS. Cell line authentication was achieved by genetic profiling using polymorphic short tandem repeat (STR) loci (ATCC). All cell lines were free of mycoplasma contamination. […]
as §3

[8] = biological target: T1, SF3B1 R1074H (Homo sapiens, UniProt O75533+Q7RTV0, R1074H); conditions: Yokoi et al. 2011; cited from earlier work
T1 construct: endogenous in cells; WiDr clones in the cited Yokoi et al. work

Compound | resistance conferred by mutations in resistant clones (growth inhibition profiling) [1] | dose-dependent induction of MCL1 ES and IR events [3] | GI50 ([4]; Homo sapiens, HCT-116) | resistant phenotype upon PHF5A Y36C over-expression [7] | other results
CC[C@H](O)[C@@H](C)[C@H]1O[C@@H]1C[C@@](C)(O)/C=C/C=C(\C)C1OC(=O)C[C@H](O)CC[C@@](C)(O)[C@@H](OC(=O)N2CCN(C3CCCCCC3)CC2)/C=C/[C@@H]1C (stereo partly drawn) [Compound E7107] | SF3B1-R1074H mutation conferred the most robust resistance | “earlier” induction of MCL1 ES events than IR events at lower doses | 1.5 nM | partial resistant phenotype | number of introns with induced aberrant splicing ([2]; E7107, FIG. 4A): approximately 20,000; number of the 3883 Y36C related ES junctions showing reduced ES PSI and increased IR PSI in WT cells ([2]; E7107 treated WT vs Y36C cells): 2470; share of Y36C related ES junctions showing reduced ES PSI and increased IR PSI in WT cells ([2]; E7107 treated WT vs Y36C cells): ~64%; differential splicing events vs DMSO ([2]; PHF5A WT cells, 100 nM E7107): intron-retention (IR) events were predominant; MCL1 isoform events in RNA-seq sashimi plots ([2]; PHF5A WT cells, E7107 treatment): IR was the dominant event observed; MCL1-S production (ES events) [5]: enhanced to a higher level; differential splicing events vs DMSO ([6]; 100 nM E7107): the overall amount of IR events and their average fold change were greatly reduced; also recorded: the number of compound induced exon-skipping (ES) events was increased; MCL1 isoform events in RNA-seq sashimi plots ([6]; E7107 treatment): mainly ES events were observed yielding the MCL1-S form; effect of SF3B1 R1074H substitution on compound activity [8]: almost completely abolishes the splicing-modulating and anti-proliferative effects
CC(C)C[C@H](NC(=O)[C@H](Cc1ccccc1)NC(=O)c1cnccn1)B(O)O [bortezomib] | did not affect the cell lines sensitivity |  |  | not | 
CO[C@H]([C@@H](C)[C@H]1O[C@]1(C)C[C@H](C)/C=C/C=C(\C)[C@H]1O[C@@H](CC(=O)O)CC[C@@H]1C)[C@@H](C)O [herboxidiene] | PHF5A-Y36C mutation rendered more resistance | even more pronounced effect | 7.6 nM |  | 
CO[C@]1(C)C[C@@]2(CO2)[C@H](O)[C@@H](/C=C/C(C)=C/C[C@@H]2O[C@H](C)[C@H](NC(=O)/C=C\[C@H](C)OC(C)=O)C[C@@H]2C)O1 [spliceostatin A] | SF3B1-R1074H mutation also conferred better resistance; also recorded: show resistance to the Y36C clone |  |  |  | GI50 [4]: 0.76 nM
CNC(=O)O[C@@H](C)/C=C\C(=O)N[C@H]1CC[C@@H](C/C=C(C)/C=C/[C@@H]2C[C@]3(CO3)CC(C)(C)O2)CC1 [sudemycin D6] | SF3B1-R1074H mutation also conferred better resistance | IR events were not observed | 149 nM |  | 
sudemycin D6 | show resistance to the Y36C clone |  |  |  | 

Reference: patent US20200190593A1, “SPLICEOSOME MUTATIONS AND USES THEREOF” (EISAI R&D MANAGEMENT CO., LTD., priority 2017, published 2020)
